The assay relates to rat pituitary cells. The assay is described as follows: In-vitro assay of GH secretion from cultured rat pituitary cells (rGH measured by SPA). The assay is classed as cell-based. The settings on record: mixed rat anterior pituitary cell culture, 15 min stimulation at 37° C. How it is done:
An in-vitro assay using rat pituitary cells was established to study the effect of different GH secretagogues. The mixed pituitary cell culture was isolated from the anterior pituitary of male rats and cultured for 3 days. After washing the cells were stimulated for 15 min and the amount of GH secreted measured in the culture supernatant. The isolation of rat pituitary cells was a modification of Sartor, O. et al., Endocrinology 116, 1985, pp. 952-957. Pituitaries were discharged from 250 g male Sprague-Dawley rats after decapitation. The neurointermediate lobes were removed and the remainder was placed in Gey's medium supplemented with 0.25% glucose, 2× non essential amino acid and 1% BSA (isolation buffer). The glands were cut into small pieces and transferred to a flask containing 3 ml isolation buffer +11.5 mg trypsin and 1000 μg DNase and incubated for 35 min at 37° C., 95% O2 and 70 rotations per min. The fragments were washed 3 times by sedimentation in isolation buffer and aspirated into single cells by using a pasteur pipet. After dispersion the cells were filtered though a nylon filter (160 μm) to remove undigested tissue. The cells were washed 3 times with isolation buffer supplemented with trypsin inhibitor (0.75 mg/ml) and resuspended in culture medium (DMEM supplemented with 25 mM HEPES, 4mM Glutamine, 0.75% sodium bicarbonate, 2.5% FCS, 3% horse serum, 10% rat serum, 1 nM T3 and 40 μg/L dexamethasone) to a density of 2×10^5 cells/ml. The cells were seeded into microtiter plates, 200 μl/well and cultured for 3 days at 37° C. and 8% CO2. Following the culture period the cells were washed twice with stimulation buffer (HBSS supplemented with 1% BSA, 0.25% D-glucose and 25 mM HEPES) and preincubated for 1 hour. […] The buffer was collected and analyzed for rat growth hormone (rGH) content in a scintillation proximity assay (SPA) as follows (SPA, essentially as described in U.S. Pat. […] USA 82, 1985, pp. 8672-8676). The rGH assay was performed in OptiPlates (96-well plates) suitable for direct counting in a […] TopCount (β-scintillation counter). Assay protocol: 40 μl buffer 10 μl sample (incubated stimulation buffer) 50 μl ^125 I-rGH 50 μl rabbit anti-rGH 50 μl SPA reagent (anti-rabbit antibody bound to fluomicrospheres) The plates are sealed and placed on a plate shaker for 30 minutes followed by 10 hours of incubation, settling at 10°-15° C. and counting. In the SPA, rGH bound to an anti-GH rabbit antibody (primary antibody) is reacted with a second antibody bound to fluomicrospheres (SPA Type II RIA available from Amersham). Any radiolabelled rGH which is bound to the primary antibody will be immobilized on the fluomicrospheres which will then produce light. Measurement in a β-scintillation counter makes it possible to calculate the amount of radiolabelled rGH. The amount of radiolabelled rGH bound to the fluomicrospheres decreases with an increasing content of rGH in the sample.

Residues, ends and D or L forms follow the SMILES beside them.

On to “H-His-D-Trp-Ala-Trp-D-Phe.psi.(CH2 NH)Lys-NH2 [Example 2]”, for which the response was half-maximal at 0.5 nM (EC50) and the “Emax (% of GHRP-6)” value is given as 100 % of GHRP-6.

Take “(2S)-((3-(4-Imidazolyl)propionyl)-D-Phe--Ala--Trp-D-Phe.psi.(CH2 NH)-6-aminohexanol”: the EC50 (in general, the midpoint of the concentration-response curve) is 5 nM and the “Emax (% of GHRP-6)” value is on record as 80 % of GHRP-6.

As for `C[C@@H](N)C(=O)N[C@H](Cc1ccc2ccccc2c1)C(=O)NCC(=O)N[C@@H](Cc1c[nH]c2ccccc12)C(=O)N[C@H](Cc1ccccc1)C(=O)N[C@@H](CCCCN)C(N)=O` [H-DAla-D2Nal--Gly--Trp-DPhe--Lys--NH2] (HELM PEPTIDE1{[dA].[O=C([C@@H](Cc1ccc2ccccc2c1)N[*:1])[*:2]].G.W.[dF].K.[am]}$$$$V2.0), the EC50 worked out at 0.8 nM and the “Emax (% of GHRP-6)” value is given as 75 % of GHRP-6.

With `C[C@H](NC(=O)[C@@H](Cc1c[nH]c2ccccc12)NC(=O)[C@@H](N)Cc1c[nH]cn1)C(=O)N[C@@H](Cc1c[nH]c2ccccc12)C(=O)N[C@H](Cc1ccccc1)C(=O)N[C@@H](CCCCN)C(N)=O` [H--His-D-Trp--Ala--Trp-D-Phe--Lys--NH2] (HELM PEPTIDE1{H.[dW].A.W.[dF].K.[am]}$$$$V2.0), the EC50 was 2 nM and the “Emax (% of GHRP-6)” value is listed as 100 % of GHRP-6.

`C[C@H](NC(=O)[C@@H](Cc1ccc2ccccc2c1)NC(=O)[C@@H](C)N)C(=O)N[C@@H](Cc1c[nH]c2ccccc12)C(=O)N[C@H](Cc1ccccc1)C(=O)N[C@@H](CCCCN)C(N)=O` [H-D-Ala-D-2Nal--Ala--Trp-D-Phe--Lys--NH2] (HELM PEPTIDE1{[dA].[O=C([C@@H](Cc1ccc2ccccc2c1)N[*:1])[*:2]].A.W.[dF].K.[am]}$$$$V2.0): the EC50 was determined as 1.8 nM and the “Emax (% of GHRP-6)” value is given as 85 % of GHRP-6.

The values above are taken from patent publication US5854211A, “Compounds with growth hormone releasing properties” (Novo Nordisk A/S, priority 1993, dated 1998).
